{"source": "patent US7563801B2", "about": "“Pharmaceutical formulations: salts of 8-[{1-(3,5-Bis-(trifluoromethyl)phenyl)-ethoxy}-methyl]-8-phenyl-1,7-diaza-spiro[4.5]decan-2-one and treatment methods using the same” (Schering Corporation, priority 2006, dated 2009)", "key": {"[1]": {"assay": "Single dose rising study of the encapsulated formulation in healthy human volunteers, pharmacokinetics", "type": "in vivo", "details": "for AUC / Cmax / Tmax / half-life: plasma, oral capsule; for AUC: 0 to 72 hours post administration, read-out: AUC (area under the plasma concentration time curve); for Cmax: read-out: Cmax (mean maximum plasma concentration); for Tmax: read-out: Tmax (median time of maximum plasma concentration); for half-life: read-out: Half Life T ½ (converted)", "procedure": "Another aspect of the present invention is the provision of a pharmaceutical formulation comprising a hydrochloride monohydrate salt of Formula II in a capsule oral dosage form which has a Pharmacokinetic (PK) profile obtained under single dose rising rate study conditions in accordance with Table VIII (average of eight study subjects).\nBlood samples were collected from each volunteer at predose (hour 0) and 0.25, 0.5, 0.75, 1, 1.5, 2, 3, 4, 6, 8, 12, 16, 24, 36, 48, and 72 hours. The serum drug levels of the volunteers receiving active drug are present graphically in FIG. 2."}, "[2]": {"assay": "Second study: 10, 25 or 50 mg per day for 10 days in healthy volunteers, pharmacokinetics on days 1 and 10", "type": "in vivo, human", "details": "for Cmax / AUC / Tmax / half-life: plasma, oral; for Cmax: read-out: Cmax (mean maximum plasma concentration); for AUC: footnote: 0 to 72 hours post administration, read-out: AUC (area under the plasma concentration time curve); for Tmax: read-out: Tmax (median time of maximum plasma concentration); for half-life: read-out: Half Life T ½ (converted)", "procedure": "In a second study, three cohorts of 8 healthy volunteers each were administered 10, 25, or 50 mg per day for each of 10 days. Administration in every case followed a 10 hour fast. Blood samples were collected from each volunteer at predose (hour 0) and 0.25, 0.5, 0.75, 1, 1.5, 2, 3, 4, 6, 8, 12, 16, 24, 36, 48, and 72 hours on each of days 1 and 10."}, "[3]": {"details": "human, 10 mg per day, human, 10 mg per day, Day 1"}, "[4]": {"details": "human, 10 mg per day, human, 10 mg per day, Day 10"}, "[5]": {"details": "human, 25 mg per day, human, 25 mg per day, Day 1"}, "[6]": {"details": "human, 25 mg per day, human, 25 mg per day, Day 10"}, "[7]": {"details": "human, 50 mg per day, human, 50 mg per day, Day 1"}, "[8]": {"details": "human, 50 mg per day, human, 50 mg per day, Day 10"}}}
{"smiles": "C[C@@H](OC[C@@]1(c2ccccc2)CC[C@]2(CCC(=O)N2)CN1)c1cc(C(F)(F)F)cc(C(F)(F)F)c1", "note": "[(5S,8S)-8-[{(1R)-1-(3,5-Bis-(trifluoromethyl)phenyl]-ethoxy}-methyl]-8-phenyl-1,7-diazaspiro[4,5]decan-2-one]", "values": [{"measurement": "AUC", "setting": "[1]; single dose 5 mg", "result": 931, "unit": "ng·h/mL"}, {"measurement": "Cmax", "setting": "[1]; single dose 5 mg", "result": 27.3, "unit": "ng/mL"}, {"measurement": "Tmax", "setting": "[1]; single dose 5 mg", "result": 2, "unit": "h"}, {"measurement": "AUC", "setting": "[1]; single dose 10 mg", "result": 1820, "unit": "ng·h/mL"}, {"measurement": "Cmax", "setting": "[1]; single dose 10 mg", "result": 52.7, "unit": "ng/mL"}, {"measurement": "Tmax", "setting": "[1]; single dose 10 mg", "result": 2.5, "unit": "h"}, {"measurement": "AUC", "setting": "[1]; single dose 25 mg", "result": 17200, "unit": "ng·h/mL"}, {"measurement": "Cmax", "setting": "[1]; single dose 25 mg", "result": 119, "unit": "ng/mL"}, {"measurement": "half-life", "setting": "[1]; single dose 25 mg", "result": 183, "unit": "h"}, {"measurement": "Tmax", "setting": "[1]; single dose 25 mg", "result": 2.5, "unit": "h"}, {"measurement": "AUC", "setting": "[1]; single dose 50 mg", "result": 33600, "unit": "ng·h/mL"}, {"measurement": "Cmax", "setting": "[1]; single dose 50 mg", "result": 276, "unit": "ng/mL"}, {"measurement": "half-life", "setting": "[1]; single dose 50 mg", "result": 171, "unit": "h"}, {"measurement": "Tmax", "setting": "[1]; single dose 50 mg", "result": 3, "unit": "h"}, {"measurement": "AUC", "setting": "[1]; single dose 100 mg", "result": 74400, "unit": "ng·h/mL"}, {"measurement": "Cmax", "setting": "[1]; single dose 100 mg", "result": 475, "unit": "ng/mL"}, {"measurement": "half-life", "setting": "[1]; single dose 100 mg", "result": 181, "unit": "h"}, {"measurement": "Tmax", "setting": "[1]; single dose 100 mg", "result": 2, "unit": "h"}, {"measurement": "AUC", "setting": "[1]; single dose 200 mg", "result": 148000, "unit": "ng·h/mL"}, {"measurement": "Cmax", "setting": "[1]; single dose 200 mg", "result": 944, "unit": "ng/mL"}, {"measurement": "half-life", "setting": "[1]; single dose 200 mg", "result": 169, "unit": "h"}, {"measurement": "Tmax", "setting": "[1]; single dose 200 mg", "result": 4, "unit": "h"}, {"measurement": "Absorption", "setting": "[1]; single oral doses 5 to 200 mg", "result": "rapidly absorbed"}, {"measurement": "Absorption", "setting": "[2]; human, 10, 25 or 50 mg per day for 10 days", "result": "rapidly absorbed"}, {"measurement": "Accumulation relative to the single dose", "setting": "[2]; human, daily dosing for 10 days", "result": "approximately 5 fold"}, {"measurement": "Cmax", "setting": "[2]; human, 10 mg per day, human, 10 mg per day, Day 1, after 10 hour fast", "result": 48.6, "unit": "ng/mL"}, {"measurement": "AUC", "setting": "[2]; [3]", "result": 673, "unit": "ng·h/mL"}, {"measurement": "Tmax", "setting": "[2]; [3]", "result": 3, "unit": "h"}, {"measurement": "Cmax", "setting": "[2]; human, 10 mg per day, human, 10 mg per day, Day 10, after 10 hour fast", "result": 180, "unit": "ng/mL"}, {"measurement": "AUC", "setting": "[2]; [4]", "result": 3590, "unit": "ng·h/mL"}, {"measurement": "Tmax", "setting": "[2]; [4]", "result": 3, "unit": "h"}, {"measurement": "Cmax", "setting": "[2]; human, 25 mg per day, human, 25 mg per day, Day 1, after 10 hour fast", "result": 139, "unit": "ng/mL"}, {"measurement": "AUC", "setting": "[2]; [5]", "result": 1950, "unit": "ng·h/mL"}, {"measurement": "Tmax", "setting": "[2]; [5]", "result": 2, "unit": "h"}, {"measurement": "Cmax", "setting": "[2]; human, 25 mg per day, human, 25 mg per day, Day 10, after 10 hour fast", "result": 491, "unit": "ng/mL"}, {"measurement": "AUC", "setting": "[2]; [6]", "result": 9720, "unit": "ng·h/mL"}, {"measurement": "Tmax", "setting": "[2]; [6]", "result": 2, "unit": "h"}, {"measurement": "Cmax", "setting": "[2]; human, 50 mg per day, human, 50 mg per day, Day 1, after 10 hour fast", "result": 254, "unit": "ng/mL"}, {"measurement": "AUC", "setting": "[2]; [7]", "result": 3400, "unit": "ng·h/mL"}, {"measurement": "Tmax", "setting": "[2]; [7]", "result": 3, "unit": "h"}, {"measurement": "Cmax", "setting": "[2]; human, 50 mg per day, human, 50 mg per day, Day 10, after 10 hour fast", "result": 895, "unit": "ng/mL"}, {"measurement": "AUC", "setting": "[2]; [8]", "result": 17700, "unit": "ng·h/mL"}, {"measurement": "Tmax", "setting": "[2]; [8]", "result": 2.5, "unit": "h"}, {"measurement": "half-life", "setting": "[2]; human, 10 mg per day, Day 10", "result": 238, "unit": "h"}, {"measurement": "half-life", "setting": "[2]; human, 50 mg per day, Day 10", "result": 172, "unit": "h"}]}
